Source: US20050209231A1, “Compositions and methods for inducing cardiomyogenesis” (priority 2004, published 2005)

Tests used:
[1] = Toxicity of the cardiogenols (Table 1); assay type: cell-based, murine; conditions: mouse, P19CL6 cells
[2] = test system: P19CL6 cells; assay: MHC expression by immunostaining (anti-MHC antibody MF20), secondary assay for differentiation; assay type: cell-based, murine; conditions: for Optimal Activity: % cells positive for MHC after 7 days; for EC50: Mus musculus, P19CL6, inducing MHC expression
Protocol: MHC is one of the essential motor proteins responsible for cardiac muscle contractibility and was used as a secondary assay for differentiation. […] The P19CL6 cell line is a subclone of P19 EC cells with higher potential for cardiomyogenesis. See Habara-Ohkubo, Cell Struct. Funct., 21:101-110 (1996). MHC expression was determined in P19CL6 cells by immunostaining cells with anti-MHC antibody (MF20) (FIG. 2F).
The optimal activities of the cardiogenols in Table 1 are indicated by a series of "+" signs, as follows: ++: 10-25% cells are positive for MHC after 7 days; +++: 25-40% cells are positive for MHC after 7 days; ++++: 40-55% cells are positive for MHC after 7 days.

[3] = test system: R1 cells; assay: Cellular toxicity and cell death in R1 cells; assay type: cell-based
[4] = test system: R1 mouse ESCs; assay: Differentiation of undifferentiated R1 ESCs in monolayer into cardiac muscle (immunostaining of MHC, GATA-4, MEF2, Nkx2.5; beating); assay type: cell-based
Protocol: FIG. 2. Immunostaining of cardiac muscle markers in ESCs (A to E) and P19CL6 cells (F) treated with 0.25 μM cardiogenol C: (A) and (F) Myosin Heavy Chain (green); (B) GATA-4 (red); (C) MEF2 (red); (D) Nkx2.5 (red); and (E) Myosin Heavy Chain (green) and MEF2 (red). Cell nuclei were stained with DAPI (blue). Cells were fixed with 4% paraformaldehyde (Sigma) for 20 min. Cell staining was performed in PBS (Gibco) with 0.3% Triton X-100 and 6% horse serum. Primary antibodies were used at the following dilutions: myosin heavy chain (MHC) mouse monoclonal antibody MF20 (Developmental Studies Hybridoma Bank, 1:200), rabbit polyclonal anti-GATA-4 antibody (Santa Cruz Biotech, 1:300), rabbit anti-MEF2 antibody (Santa Cruz Biotech, 1:100) and goat anti-Nkx2.5 antibody (Santa Cruz Biotech, 1:100). Secondary antibodies were Cy2-conjugated anti-mouse (1:300), or Cy3-conjugated anti-rabbit or anti-goat antibodies (Jackson ImmunoResearch, 1:500). Cell nuclei were stained with DAPI (Roche). Images were taken with a Nikon Eclipes TE2000 microscope with 200-fold magnification. Double or triple-labeled images were assembled in Metamorph.
To confirm that these compounds are general cardiomyogenesis inducing agents, their effects on undifferentiated R1 mouse ESCs were analyzed. R1 mouse ESCs can be maintained in a pluripotent state with the addition of leukemia inhibitory factor (LIF) in the culture medium. The embryonic stem cell line R1 was cultured in gelatin-coated tissue culture dishes with Knockout DMEM with 15% ES serum replacement, 1 mM L-glutamine (from Gibco), 1% nonessential amino acids stock, 1% nucleosides stock, 0.1 mM […] (from Specialty Media) and 1000 units/mL of leukemia inhibitory factor (LIF, from Chemicon).
For differentiation, R1 cells were plated in a monolayer (10000 cells/well) in gelatin-coated 384-well or 96-well plates with 100 μL of DMEM with 10% FBS and 0.25 μM of compounds. LIF was not present during differentiation. After 7 days in culture (3 days with compounds and then, after changing the medium without additional compound added, another 4 days), the presence of beating cardiac muscle was visualized under a microscope. In addition to the expression of MHC (FIG. 2A), the cardiac specific gene, GATA-4, was detected by immunofluorescent staining using anti-GATA4 antibody (FIG. 2B).
Cardiogenol C has a […] aniline substituting at the pyrimidine C2 position and is very potent with an EC50 of 0.1 μM for inducing the differentiation of MHC positive cardiomyocytes from ESCs. […] See Boheler et al., Circ. Res., 91:189-201 (2002). […] This is in contrast to the current standard method of inducing cardiomyogenesis of ESCs by aggregation and formation of EBs, which results in only 5% of the cell population forming cardiomyocytes. See Boheler et al., (2002).
To further characterize the activity of Cardiogenol C, the expression of the cardiac muscle cell specific transcription factors MEF2 and Nkx2.5 was examined (FIGS. 2C and D). Members of the MEF2 family are essential for muscle development. See, e.g., Edmondson, et al., Development, 1251-1263 (1994); Lin et al., Science, 276:1404-1407 (1997). Nkx2.5 together with GATA-4 regulates the expression of multiple cardiac muscle specific genes (e.g., myosin light chain 2V, atria natriuretic factor, eHAND and homeodomain transcription factor HOP). See, e.g., Small et al., Cell, 110:725-735 (2002); Shin et al., Cell, 110:725-35 (2002). Moreover, the targeted interruption of Nkx2.5 gene is embryonic lethal and results in arrest of cardiac development. See, e.g., Lyons et al., Genes Dev., 9:1654-66 (1995). Approximately 90% of cardiogenol C treated cells stain positive for MEF2 and Nkx2.5, further confirming that ESCs are differentiated into cardiac muscle by cardiogenol C.

[5] = R1 cells, 0.25 μM compound for 3 days, then 4 days in medium without compound

SMILES: OCCNc1ccnc(Nc2ccc(Oc3ccccc3)cc2)n1 [Cardiogenol B]
- EC50 [1]: 5000 nM
- Optimal Activity [2]: +++ (25-40% cells are positive for MHC after 7 days)
- EC50 [2]: 500 nM

SMILES: OCCNc1ccnc(Nc2ccc(/C=C/c3ccccc3)cc2)n1 [Cardiogenol D]
- EC50 [1]: 2500 nM
- Optimal Activity [2]: ++++ (40-55% cells are positive for MHC after 7 days)
- EC50 [2]: 100 nM

SMILES: OCCNc1ccnc(Nc2ccc(Nc3ccccc3)cc2)n1 [Cardiogenol A]
- EC50 [1]: 5000 nM
- Optimal Activity [2]: ++ (10-25% cells are positive for MHC after 7 days)
- EC50 [2]: 1000 nM

SMILES: COc1ccc(Nc2nccc(NCCO)n2)cc1 [Cardiogenol C]
- EC50 [1]: 25000 nM
- Optimal Activity [2]: ++++ (40-55% cells are positive for MHC after 7 days)
- EC50 [2]: 100 nM
- concentration showing significant cellular toxicity [3]: greater than 25 μM
- treated cells stain positive for MEF2 ([4]; ESCs): Approximately 90%
- treated cells stain positive for Nkx2.5 ([4]; ESCs): Approximately 90%
- EC50 ([4]; Mus musculus, Cardiomyocyte, read-out: EC50 for inducing the differentiation of MHC positive cardiomyocytes from ESCs): 100 nM
- beating areas (functional cardiac muscle) ([4]; R1 cells treated with compound): many beating areas
- cells positive for GATA-4 [4, 5]: more than 90%
- cells stained positive for MHC [4, 5]: more than 50%
